For the assay, the target named is T1, PenA1 β-lactamase (class A carbapenemase) (Burkholderia multivorans, UniProt A0A0H3KN52).
T1 construct: gene ampC
The assay is described as follows: steady-state β-lactamase inhibition kinetics (Ki app, k2/K, koff). In kind it is biochemical. The following applies: read-out: Taniborbactam.

Experimental findings from publication PMC10648927, “Examining the activity of cefepime-taniborbactam against Burkholderia cepacia complex and Burkholderia gladioli isolated from cystic fibrosis patients in the United States” (Antimicrobial Agents and Chemotherapy, 2023) are described below.

T1 sequence (A0A0H3KN52 entry or part of it): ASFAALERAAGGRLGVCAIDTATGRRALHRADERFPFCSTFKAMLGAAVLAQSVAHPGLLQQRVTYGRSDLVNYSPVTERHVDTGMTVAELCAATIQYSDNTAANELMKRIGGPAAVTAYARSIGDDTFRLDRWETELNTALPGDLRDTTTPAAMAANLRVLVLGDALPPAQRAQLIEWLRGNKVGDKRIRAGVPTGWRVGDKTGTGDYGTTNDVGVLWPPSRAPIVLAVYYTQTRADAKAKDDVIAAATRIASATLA

As for `NCCN[C@H]1CC[C@H](CC(=O)N[C@H]2Cc3cccc(C(=O)O)c3OB2O)CC1` [taniborbactam], the Ki was 400 ± 40 nM.
